From US11179412B2, “Methods of treating conditions involving elevated inflammatory response” (University of Pittsburgh—Of the Commonwealth System of …, priority 2017, dated 2021)
“Also recorded” adds a separate entry of the source.

Columns and labels:
RAW264.7 cells = assay: Cell viability assay (CCK-8), RAW264.7; assay type: cell-based, mouse; conditions: 3′3′-cGAMP 10 μg/ml, ALK inhibitor 10 μM, 16 hours
Protocol: (§1) Cells were seeded into 96-well plates and incubated with the indicated treatments. Subsequently, 100 μl fresh medium was added to cells containing 10 μl Cell Counting Kit-8 (CCK-8) solutions (Dojindo Laboratories) and incubated for 1 h (37° C., 5% CO2). Absorbance at 450 nm was measured using a microplate reader (Tecan).

iBMDMs = assay: Cell viability assay (CCK-8), iBMDMs; assay type: cell-based, mouse; conditions: 3′3′-cGAMP 10 μg/ml, ALK inhibitor 10 μM, 16 hours
Protocol: as §1

THP1 cells = assay: Cell viability assay (CCK-8), THP1; assay type: cell-based, human; conditions: 3′3′-cGAMP 10 μg/ml, ALK inhibitor 10 μM, 16 hours
Protocol: as §1

pPMs = assay: Cell viability assay (CCK-8), pPMs; assay type: cell-based, mouse; conditions: 3′3′-cGAMP 10 μg/ml, ALK inhibitor 10 μM, 16 hours
Protocol: as §1

[1] = tested on: STING activation (IFNβ release) in iBMDMs; assay: IFNβ release ELISA after STING ligand (or LPS) stimulation, iBMDMs; assay type: cell-based, mouse; conditions: iBMDMs; 3′3′-cGAMP 10 μg/ml, 16 hours; compound 10 μM
How it was run: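 iBMDMs were stimulated with a STING ligand such as 3′3′-cGAMP, or with LPS. Secreted IFNβ in culture medium was measured by commercial mouse or human IFNβ ELISA.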

[2] = tested on: STING activation (IFNβ release) in pPBMCs; assay: IFNβ release ELISA, primary peripheral blood mononuclear cells (pPBMCs); assay type: cell-based; conditions: human pPBMCs; 3′3′-cGAMP 10 μg/ml, 16 hours; compound 10 μM
Protocol: (§2) Macrophages or monocytes were treated with 3′3′-cGAMP (10 μg/ml, Invitrogen) for 16 hours in the absence or presence of one compound (10 μM) from the Target-selective Inhibitory Library (#L3500, Selleck Chemicals). Commercially available enzyme-linked immunosorbent assay (ELISA) kits were used to measure the concentrations of mouse IFNβ (Thermo Fisher Scientific) or human IFNβ (Thermo Fisher Scientific) in culture medium according to the manufacturer's instructions.

[3] = tested on: STING activation (IFNβ release) in pPMs; assay: IFNβ release ELISA, primary peritoneal macrophages (pPMs); assay type: cell-based, mouse; conditions: mouse pPMs; 3′3′-cGAMP 10 μg/ml, 16 hours; compound 10 μM
Protocol: Mouse pPMs were isolated from C57BL/6J mice as previously described (69). In brief, eight-week-old female or male C57BL/6J mice were injected with 3.0% thioglycollate medium (2 mL/mouse) into the peritoneum. Three days after injection, mice were sacrificed and injected with 3 mL of 0.05% EDTA-PBS into the peritoneum to harvest peritoneal macrophages. Collected cells were centrifuged at 1000 rpm for 5 min at 4° C., and the cell pellet was washed with PBS and centrifuged again. The cell pellet was then suspended in Dulbecco's Modified Eagle Medium supplemented with 10% FBS and 1× Penicillin-Streptomycin and cultured in a culture dish.
as §2

[4] = tested on: STING signaling (TBK1, IRF3, p65, ALK, EGFR, AKT phosphorylation) in THP1 cells; assay: Western blot of STING pathway protein phosphorylation, THP1; assay type: cell-based, human; conditions: 16 hours, 10 μM; for STING ligand-induced phosphorylation of TBK1, IRF3, and p65: 3′3′-cGAMP or c-di-AMP 10 μg/ml; for 3′3′-cGAMP- or c-di-AMP-induced phosphorylation of ALK, EGFR, and AKT: ligand 10 μg/ml
Protocol: (§3) For immunoblotting, cells were lysed in Cell Lysis Buffer (#9803, Cell Signaling Technology) with protease inhibitor cocktail (Promega), phosphatase inhibitor cocktail (Sigma), and 1 mM Na3VO4 (70). Cleared lysates were resolved by SDS-PAGE (#3450124, Bio-Rad) and then transferred onto PVDF membranes (#1704273, Bio-Rad). The membranes were blocked with Tris-buffered saline Tween 20 (TBST) containing 5% skim milk for 1 h at room temperature and then incubated with the indicated primary antibodies (1:1000-1:5000) overnight at 4° C. After being washed with TBST, the membranes were incubated with an HRP-linked anti-mouse IgG secondary antibody (#7076, Cell Signaling Technology) or HRP-linked anti-rabbit IgG secondary antibody (#7074, Cell Signaling Technology) for 1 h at room temperature. The membranes were washed three times in TBST and then visualized and analyzed with a ChemiDoc Touch Imaging System (#1708370, Bio-Rad). The intensities of bands were analyzed with Image Lab software.

[5] = tested on: STING signaling (TBK1, IRF3, p65, ALK, EGFR, AKT phosphorylation) in iBMDMs; assay: Western blot of STING pathway protein phosphorylation, iBMDMs; assay type: cell-based, mouse; conditions: 16 hours, 10 μM; for STING ligand-induced phosphorylation of TBK1, IRF3, and p65: 3′3′-cGAMP or c-di-AMP 10 μg/ml; for 3′3′-cGAMP- or c-di-AMP-induced phosphorylation of ALK, EGFR, and AKT: ligand 10 μg/ml
Protocol: as §3

[6] = tested on: STING signaling (TBK1, IRF3, p65, ALK, EGFR, AKT phosphorylation) in RAW264.7 cells; assay: Western blot of STING pathway protein phosphorylation, RAW264.7; assay type: cell-based, mouse; conditions: 16 hours, 10 μM; for STING ligand-induced phosphorylation of TBK1, IRF3, and p65: 3′3′-cGAMP or c-di-AMP 10 μg/ml; for 3′3′-cGAMP- or c-di-AMP-induced phosphorylation of ALK, EGFR, and AKT: ligand 10 μg/ml
Protocol: as §3

[7] = target: T1, interaction between ALK and EGFR (Mus musculus, UniProt P97793+Q01279); assay: IP analysis of the interaction between ALK and EGFR, iBMDMs; assay type: cell-based; conditions: 3′3′-cGAMP or c-di-AMP 10 μg/ml, 16 hours, 10 μM
T1 construct: endogenous in cells; host or cells: iBMDMs
Protocol: Concentrations of proteins in the supernatant were determined by bicinchoninic acid assay. […] Following incubation, agarose/sepharose beads were washed extensively with PBS and proteins were eluted by boiling in 2× sodium dodecyl sulfate (SDS) sample buffer before SDS-PAGE electrophoresis.

[8] = target: T2, interaction between ALK and EGFR (Homo sapiens, UniProt P00533+Q9UM73); assay: IP analysis of the interaction between ALK and EGFR, THP1; assay type: cell-based; conditions: 3′3′-cGAMP or c-di-AMP 10 μg/ml, 16 hours, 10 μM
T2 construct: endogenous in cells; host or cells: THP1 cells
Protocol: For immunoprecipitation, cells were lysed at 4° C. in ice-cold modified radioimmunoprecipitation lysis buffer (#9806, Cell Signaling Technology) and cell lysates were cleared by centrifugation (12,000 g, 10 min). Concentrations of proteins in the supernatant were determined by bicinchoninic acid assay. Prior to immunoprecipitation, samples containing equal amounts of proteins were pre-cleared with Protein A/G agarose/sepharose beads (#20423, Thermo Fisher Scientific Inc.) (4° C., 3 h) and subsequently incubated with various irrelevant IgG or anti-ALK (#ab190934, Abcam) or anti-EGFR antibodies (#2232S, Cell Signaling Technology) in the presence of Protein A/G agarose/sepharose beads overnight at 4° C. with gentle shaking. Following incubation, agarose/sepharose beads were washed extensively with PBS and proteins were eluted by boiling in 2× sodium dodecyl sulfate (SDS) sample buffer before SDS-PAGE electrophoresis.

T2 sequence (Q9UM73 19-1620): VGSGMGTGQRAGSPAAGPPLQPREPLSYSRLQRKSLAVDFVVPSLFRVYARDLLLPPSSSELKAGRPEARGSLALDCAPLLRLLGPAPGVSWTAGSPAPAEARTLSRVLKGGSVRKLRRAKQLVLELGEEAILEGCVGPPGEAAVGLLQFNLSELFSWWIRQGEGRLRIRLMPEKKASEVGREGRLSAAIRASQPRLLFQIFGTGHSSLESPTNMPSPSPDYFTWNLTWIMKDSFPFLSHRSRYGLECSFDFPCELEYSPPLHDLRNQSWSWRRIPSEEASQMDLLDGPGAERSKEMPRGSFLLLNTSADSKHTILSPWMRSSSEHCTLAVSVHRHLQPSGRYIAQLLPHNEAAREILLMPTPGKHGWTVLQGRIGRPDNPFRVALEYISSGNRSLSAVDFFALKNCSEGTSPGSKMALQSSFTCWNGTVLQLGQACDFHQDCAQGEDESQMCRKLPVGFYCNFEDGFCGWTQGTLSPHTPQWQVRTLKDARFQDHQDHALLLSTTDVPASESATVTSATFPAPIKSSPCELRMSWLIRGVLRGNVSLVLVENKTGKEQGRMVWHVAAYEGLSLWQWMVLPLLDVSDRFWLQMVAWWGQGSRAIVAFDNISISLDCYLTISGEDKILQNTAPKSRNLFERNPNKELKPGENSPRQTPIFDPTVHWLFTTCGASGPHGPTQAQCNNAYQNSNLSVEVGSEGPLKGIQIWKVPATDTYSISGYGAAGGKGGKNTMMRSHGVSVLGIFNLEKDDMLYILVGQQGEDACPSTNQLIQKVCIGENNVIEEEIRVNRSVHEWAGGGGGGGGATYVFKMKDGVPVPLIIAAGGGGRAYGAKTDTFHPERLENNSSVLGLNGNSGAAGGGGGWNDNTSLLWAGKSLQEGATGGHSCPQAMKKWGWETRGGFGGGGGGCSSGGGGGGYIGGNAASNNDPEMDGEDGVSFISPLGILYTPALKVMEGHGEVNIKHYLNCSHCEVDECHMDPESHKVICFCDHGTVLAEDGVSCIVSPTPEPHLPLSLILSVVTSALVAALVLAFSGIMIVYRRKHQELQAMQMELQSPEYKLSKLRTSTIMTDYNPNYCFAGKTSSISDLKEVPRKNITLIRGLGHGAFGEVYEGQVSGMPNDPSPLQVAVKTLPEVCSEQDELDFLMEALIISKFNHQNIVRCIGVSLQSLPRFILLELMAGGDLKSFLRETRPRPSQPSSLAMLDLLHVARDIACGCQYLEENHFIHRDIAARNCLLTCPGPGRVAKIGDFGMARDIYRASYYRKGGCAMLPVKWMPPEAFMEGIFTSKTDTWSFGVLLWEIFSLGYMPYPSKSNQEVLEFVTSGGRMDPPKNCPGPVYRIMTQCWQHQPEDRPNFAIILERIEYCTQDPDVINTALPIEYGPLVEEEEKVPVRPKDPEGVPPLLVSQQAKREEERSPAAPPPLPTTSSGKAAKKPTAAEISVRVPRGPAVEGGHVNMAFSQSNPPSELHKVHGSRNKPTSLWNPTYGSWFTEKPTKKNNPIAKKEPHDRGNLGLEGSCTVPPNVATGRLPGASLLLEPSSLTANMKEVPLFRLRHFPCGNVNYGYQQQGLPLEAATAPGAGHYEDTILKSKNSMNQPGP
T2 sequence (P00533 25-1210): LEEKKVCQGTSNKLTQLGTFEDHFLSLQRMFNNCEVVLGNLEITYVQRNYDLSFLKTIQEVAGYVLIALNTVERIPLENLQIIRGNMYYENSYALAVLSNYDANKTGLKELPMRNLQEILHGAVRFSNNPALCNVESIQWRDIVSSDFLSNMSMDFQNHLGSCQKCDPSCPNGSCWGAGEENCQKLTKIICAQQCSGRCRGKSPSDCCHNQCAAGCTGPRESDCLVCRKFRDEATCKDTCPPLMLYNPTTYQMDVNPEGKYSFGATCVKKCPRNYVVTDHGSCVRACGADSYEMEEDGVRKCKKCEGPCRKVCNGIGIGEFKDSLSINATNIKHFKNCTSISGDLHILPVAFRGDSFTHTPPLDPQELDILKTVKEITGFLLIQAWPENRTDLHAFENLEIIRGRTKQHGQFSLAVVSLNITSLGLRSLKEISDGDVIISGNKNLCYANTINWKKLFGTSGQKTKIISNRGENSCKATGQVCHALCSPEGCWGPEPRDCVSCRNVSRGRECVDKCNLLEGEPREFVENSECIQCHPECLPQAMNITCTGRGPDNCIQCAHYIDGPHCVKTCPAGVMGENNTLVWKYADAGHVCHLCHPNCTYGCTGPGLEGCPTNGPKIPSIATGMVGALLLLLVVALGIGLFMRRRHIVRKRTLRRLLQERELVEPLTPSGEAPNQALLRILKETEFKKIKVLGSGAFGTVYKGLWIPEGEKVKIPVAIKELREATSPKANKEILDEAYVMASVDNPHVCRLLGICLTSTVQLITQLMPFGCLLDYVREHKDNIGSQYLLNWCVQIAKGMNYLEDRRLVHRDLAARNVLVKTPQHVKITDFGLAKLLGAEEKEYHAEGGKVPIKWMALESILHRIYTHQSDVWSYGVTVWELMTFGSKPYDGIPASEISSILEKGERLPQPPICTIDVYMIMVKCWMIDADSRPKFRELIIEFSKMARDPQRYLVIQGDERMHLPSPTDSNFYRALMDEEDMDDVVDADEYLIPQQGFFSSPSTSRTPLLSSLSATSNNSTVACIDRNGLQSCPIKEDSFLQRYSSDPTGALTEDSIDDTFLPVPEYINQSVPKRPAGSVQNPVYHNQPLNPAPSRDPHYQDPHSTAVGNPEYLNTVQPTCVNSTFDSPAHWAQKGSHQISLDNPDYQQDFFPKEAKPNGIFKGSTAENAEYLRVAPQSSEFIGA

| Structure (SMILES) | cell viability (RAW264.7 cells) | cell viability (iBMDMs) | cell viability (THP1 cells) | cell viability (pPMs) | fold increase in IFN-β release [1] [fold] | 3′3′-cGAMP-induced IFNβ release [2] | 3′3′-cGAMP-induced IFNβ release [3] | 3′3′-cGAMP-induced IFNβ release [1] | STING ligand-induced phosphorylation of TBK1, IRF3, and p65 [4] | 3′3′-cGAMP- or c-di-AMP-induced phosphorylation of ALK, EGFR, and AKT [4] | STING ligand-induced phosphorylation of TBK1, IRF3, and p65 [5] | 3′3′-cGAMP- or c-di-AMP-induced phosphorylation of ALK, EGFR, and AKT [5] | STING ligand-induced phosphorylation of TBK1, IRF3, and p65 [6] | 3′3′-cGAMP- or c-di-AMP-induced phosphorylation of ALK, EGFR, and AKT [6] | interaction between ALK and EGFR [7] | interaction between ALK and EGFR [8] |
| --- | --- | --- | --- | --- | --- | --- | --- | --- | --- | --- | --- | --- | --- | --- | --- | --- |
| COc1cc(N2CCC(N3CCN(C)CC3)CC2)ccc1Nc1ncc(Cl)c(Nc2ccccc2P(C)(C)=O)n1 [AP26113] | did not affect cell viability | did not affect cell viability | did not affect cell viability | did not affect cell viability | 0.19 |  |  |  |  |  |  |  |  |  |  |  |
| COc1cc(N2CCC(N)CC2)ccc1Nc1ncc(Cl)c(-c2c[nH]c3ccccc23)n1 [AZD3463] | exhibited cytotoxicity | exhibited cytotoxicity | exhibited cytotoxicity | exhibited cytotoxicity | 0.05 | confirmed their inhibitory properties | confirmed their inhibitory properties | blocked; also recorded: diminished |  |  |  |  |  |  |  |  |
| CC(C)NC[C@@H](C(=O)N1CCN(c2ncnc3c2[C@H](C)C[C@H]3O)CC1)c1ccc(Cl)cc1 [GDC-0068] |  |  |  |  | 0.86 |  |  |  | diminished | only blocked the phosphorylation of AKT, but not ALK or EGFR | diminished | only blocked the phosphorylation of AKT, but not ALK or EGFR | diminished | only blocked the phosphorylation of AKT, but not ALK or EGFR |  |  |
| O=C(/C=C\n1cnc(-c2cc(C(F)(F)F)cc(C(F)(F)F)c2)n1)NNc1cnccn1 [KPT-330] |  |  |  |  | 0.05 | confirmed their inhibitory properties | confirmed their inhibitory properties | blocked |  |  |  |  |  |  |  |  |
| C[C@@H]1CN(CC(=O)Nc2ccc3c(c2)Cc2cccc(-c4cc(=O)cc(N5CCOCC5)o4)c2S3)C[C@H](C)O1 [KU-60019] |  |  |  |  | 0.06 | confirmed their inhibitory properties | confirmed their inhibitory properties | blocked |  |  |  |  |  |  |  |  |
| C#Cc1cccc(Nc2ncnc3cc(OCCOC)c(OCCO)cc23)c1 [OSI-420] |  |  |  |  | 0.14 |  |  |  | diminished | attenuated | diminished | attenuated | diminished | attenuated | reduced | reduced |
| Cl.NC(=O)c1cnc(N[C@@H]2CCCC[C@@H]2N)nc1Nc1cccc(-n2nccn2)c1 [PRT062607 (P505-15, BIIB057) HCl] |  |  |  |  | 0.07 | confirmed their inhibitory properties | confirmed their inhibitory properties | blocked |  |  |  |  |  |  |  |  |
